In US20220347175A1, “PYRIDAZINONE DERIVATIVE” (Sumitomo Dainippon Pharma Co., Ltd., priority 2018, published 2022):
Each block holds one molecule with its values, some of them ahead of it.

Legend:
human Nav1.1 = biological target: T1, human Nav1.1 (Homo sapiens, UniProt P35498); experiment: Amplification of Nav1.1-derived voltage-dependent sodium current (Nav1.1 current), cell line stably expressing human Nav1.1, automated patch clamp; format: cell-based
T1 construct: host or cells: HEK293
How it was run: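 Automated whole-cell voltage-clamp recordings used HEK293 cells stably expressing human Nav1.1, keeping only cells with >500 pA current, with currents evoked by ramp voltage. Compounds were applied in extracellular fluid with 1% DMSO, and amplification (%) was computed from peak current or AUC after versus before addition.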

human Nav1.5 = biological target: T2, human Nav1.5 (Homo sapiens, UniProt Q14524); experiment: Amplification of Nav1.5-derived voltage-dependent sodium current (Nav1.5 current), cell line stably expressing human Nav1.5, automated patch clamp; format: cell-based
T2 construct: expressed in transfected cells; host or cells: CHO-K1 (T-REx System, ThermoFisher Scientific)
T2 sequence (Q14524 1-2015 isoform Q14524-2): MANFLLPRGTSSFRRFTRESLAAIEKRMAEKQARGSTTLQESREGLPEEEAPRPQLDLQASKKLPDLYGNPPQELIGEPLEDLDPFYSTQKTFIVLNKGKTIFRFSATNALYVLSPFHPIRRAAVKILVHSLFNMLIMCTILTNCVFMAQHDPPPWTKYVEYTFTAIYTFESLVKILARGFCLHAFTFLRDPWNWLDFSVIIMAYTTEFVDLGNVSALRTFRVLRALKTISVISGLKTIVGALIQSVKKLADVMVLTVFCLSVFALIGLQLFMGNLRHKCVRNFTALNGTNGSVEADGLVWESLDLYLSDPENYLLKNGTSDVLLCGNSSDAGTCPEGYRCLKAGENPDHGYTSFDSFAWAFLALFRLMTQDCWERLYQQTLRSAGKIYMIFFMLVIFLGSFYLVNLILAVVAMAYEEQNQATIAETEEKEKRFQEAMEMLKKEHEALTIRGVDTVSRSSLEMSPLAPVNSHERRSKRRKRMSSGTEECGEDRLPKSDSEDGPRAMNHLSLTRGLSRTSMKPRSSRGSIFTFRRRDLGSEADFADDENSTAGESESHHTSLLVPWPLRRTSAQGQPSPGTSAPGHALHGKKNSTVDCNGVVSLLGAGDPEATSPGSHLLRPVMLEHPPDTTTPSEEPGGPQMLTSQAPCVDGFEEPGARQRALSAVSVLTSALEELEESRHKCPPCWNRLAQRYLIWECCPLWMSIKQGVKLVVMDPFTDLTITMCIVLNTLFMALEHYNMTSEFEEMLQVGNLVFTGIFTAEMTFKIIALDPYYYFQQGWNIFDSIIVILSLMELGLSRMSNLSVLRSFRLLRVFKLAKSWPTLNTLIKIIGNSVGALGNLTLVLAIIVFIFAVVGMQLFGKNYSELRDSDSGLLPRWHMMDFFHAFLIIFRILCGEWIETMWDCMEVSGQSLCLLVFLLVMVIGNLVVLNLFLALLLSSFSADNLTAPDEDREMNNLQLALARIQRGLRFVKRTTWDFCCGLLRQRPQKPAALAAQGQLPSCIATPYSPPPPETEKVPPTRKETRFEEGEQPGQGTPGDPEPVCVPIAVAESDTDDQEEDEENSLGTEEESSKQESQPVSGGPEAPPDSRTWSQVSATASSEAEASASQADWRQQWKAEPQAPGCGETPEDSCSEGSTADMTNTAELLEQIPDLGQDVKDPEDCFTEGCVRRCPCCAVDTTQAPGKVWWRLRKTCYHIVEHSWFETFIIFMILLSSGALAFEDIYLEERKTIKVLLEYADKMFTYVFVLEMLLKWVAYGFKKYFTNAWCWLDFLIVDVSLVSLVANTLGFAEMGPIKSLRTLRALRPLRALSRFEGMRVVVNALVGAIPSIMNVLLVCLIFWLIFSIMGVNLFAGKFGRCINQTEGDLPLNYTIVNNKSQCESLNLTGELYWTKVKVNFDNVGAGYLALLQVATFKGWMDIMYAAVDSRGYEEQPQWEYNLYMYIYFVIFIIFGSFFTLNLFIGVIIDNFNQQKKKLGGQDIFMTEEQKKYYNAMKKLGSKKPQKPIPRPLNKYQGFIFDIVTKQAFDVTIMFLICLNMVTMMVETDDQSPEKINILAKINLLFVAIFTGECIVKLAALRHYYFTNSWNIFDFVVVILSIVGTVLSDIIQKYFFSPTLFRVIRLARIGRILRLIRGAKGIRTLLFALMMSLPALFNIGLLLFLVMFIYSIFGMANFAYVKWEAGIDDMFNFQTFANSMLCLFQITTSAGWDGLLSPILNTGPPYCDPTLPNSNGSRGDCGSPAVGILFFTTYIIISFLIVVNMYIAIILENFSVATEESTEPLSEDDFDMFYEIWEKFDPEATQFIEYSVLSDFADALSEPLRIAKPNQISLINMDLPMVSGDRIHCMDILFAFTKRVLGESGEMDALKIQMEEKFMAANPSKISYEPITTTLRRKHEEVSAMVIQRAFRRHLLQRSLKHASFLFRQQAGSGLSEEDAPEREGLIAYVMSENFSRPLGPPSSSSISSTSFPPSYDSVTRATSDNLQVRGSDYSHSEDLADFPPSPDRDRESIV
Procedure: Test 2: Evaluation of the Amplification in Nav1.5-Derived Voltage-Dependent Sodium Current (Nav1.5 Current) by Using a Cell Line Stably Expressing Human Nav1.5
A CHO-K1 cell line (Chinese hamster ovary) stably expressing human Nav1.5 (Gene Bank Accession No: P000326.2) was obtained by using purchased T-Rex System (ThermoFisher Scientific, USA), and used for the present test. The effect of test compounds on the amplification of Nav1.5 current was evaluated by using a cell line stably expressing human Nav1.5 and HTS automated patch clamp system, similarly in the method using Nav1.1. In other words, test compounds were added in an extracellular fluid which contained 1% DMSO and 500 nmol/L Tetrodotoxin (TTX), and evaluated as a change of the peak value of Nav1.5 current and the area under the curve (AUC). The induction and the measurement of Nav1.5 current, the pharmacologic effect on Nav1.5 current, and a method for pharmacological evaluation were carried out by the same method as in Nav1.1.

[1] = 10 μmol/L compound, change of the area under the curve of Nav1.1 current (Test Result 1)
[2] = 10 μmol/L compound, change of the area under the curve of Nav1.5 current (Test Result 1)
[3] = compound 1 μmol/L, HEK293 stably expressing human Nav1.1, read-out: Nav1.1 current amplification rate (%)
[4] = compound 1 μmol/L, CHO-K1 stably expressing human Nav1.5, read-out: Nav1.5 current amplification rate (%)
[5] = 10 μmol/L compound, change of the area under the curve of Nav1.1 current (Test Result 1), read-out: Nav1.1 current amplification rate (%)
[6] = 10 μmol/L compound, change of the area under the curve of Nav1.5 current (Test Result 1), read-out: Nav1.5 current amplification rate (%)

- Nav1.1 current amplification rate (%) (human Nav1.1; [1]): 33%
Structure (SMILES): Cc1ccc(-c2nn(CC(=O)Nc3ccn4ccnc4c3)c(=O)c(C)c2C)cc1 [Example 156]
- Nav1.5 current amplification rate (%) (human Nav1.5; [2]): 4%

- activation at 1 µM (human Nav1.1; [3]): 367%
Structure (SMILES): O=C(Cn1nc(C2=CCCCC2)ccc1=O)N1CCc2c(-c3cncnc3)cccc21 [Example 522]
- activation at 1 µM (human Nav1.5; [4]): 25%

- activation at 10 µM (human Nav1.1; [5]): 319%
Structure (SMILES): Cc1c(N2CCC3(CCC3)C2)nn(CC(=O)N2CCc3c(N4CCOCC4)cccc32)c(=O)c1C [Example 226]
- activation at 10 µM (human Nav1.5; [6]): 71%

- activation at 1 µM (human Nav1.1; [3]): 112%
Structure (SMILES): C[C@H]1CC=C(c2ccc(=O)n(CC(=O)Nc3ccc4ncnn4c3)n2)CC1 [Example 540, 2-{3-[(4R)-4-methylcyclohex-1-en-1-yl]-6-oxopyridazin-1(6H)-yl}-N-([1,2,4]triazolo[1,5-a]pyridin-6-yl)acetamide]
- activation at 1 µM (human Nav1.5; [4]): 15%

- activation at 10 µM (human Nav1.1; [5]): 75%
Structure (SMILES): Cc1cn2ccc(NC(=O)Cn3nc(N4CCC(C)CC4)ccc3=O)cc2n1 [Example 174]
- activation at 10 µM (human Nav1.5; [6]): 4%

- activation at 10 µM (human Nav1.1; [5]): 146%
Structure (SMILES): Cc1cc(N2CCC3(CCC3)C2)nn(CC(=O)N2CCc3c(N4CCN(C)CC4)cccc32)c1=O [Example 225]
- activation at 10 µM (human Nav1.5; [6]): 2%

- Nav1.1 current amplification rate (%) (human Nav1.1; [1]): 241%
Structure (SMILES): Cc1noc2cc(NC(=O)Cn3nc(C4=CCC(C)CC4)ccc3=O)ccc12 (racemic) [Example 240]
- Nav1.5 current amplification rate (%) (human Nav1.5; [2]): 174%

- Nav1.1 current amplification rate (%) (human Nav1.1; [1]): 118%
Structure (SMILES): COc1cc(=O)n(CC(=O)Nc2ccn3ccnc3c2)nc1C1=CCC(C)(C)CC1 [Example 459]
- Nav1.5 current amplification rate (%) (human Nav1.5; [2]): 21%

- Nav1.1 current amplification rate (%) (human Nav1.1; [1]): 365%
Structure (SMILES): COc1cc(=O)n(CC(=O)Nc2ccc3ocnc3c2)nc1C1=CCC(C)(C)CC1 [Example 451]
- Nav1.5 current amplification rate (%) (human Nav1.5; [2]): 30%

- activation at 3 µM (human Nav1.1; compound 3 μmol/L, HEK293 stably expressing human Nav1.1, read-out: Nav1.1 current amplification rate (%)): 263%
Structure (SMILES): CC1CC=C(c2ccc(=O)n(CC(=O)Nc3ccc4oc(N(C)C)nc4c3)n2)CC1 (centres unmarked) [Example 244, N-[2-(dimethylamino)-1,3-benzooxazol-5-yl]-2-[3-(4-methylcyclohex-1-en)-6-oxopyridazin-1(6H)-yl]acetamide]
- activation at 3 µM (human Nav1.5; compound 3 μmol/L, CHO-K1 stably expressing human Nav1.5, read-out: Nav1.5 current amplification rate (%)): 21%

- Nav1.1 current amplification rate (%) (human Nav1.1; [1]): 10%
Structure (SMILES): Cc1ccc(-c2ccc(=O)n(CC(=O)Nc3ccc4ocnc4c3)n2)cn1 [Example 452]
- Nav1.5 current amplification rate (%) (human Nav1.5; [2]): 2%

- Nav1.1 current amplification rate (%) (human Nav1.1; compound 1 μmol/L, HEK293 stably expressing human Nav1.1): 378%
Structure (SMILES): CC1CC=C(c2ccc(=O)n(CC(=O)Nc3ccc4cncnc4c3)n2)CC1 (racemic) [Example 356]
- Nav1.5 current amplification rate (%) (human Nav1.5; compound 1 μmol/L, CHO-K1 stably expressing human Nav1.5): 34%

- activation at 1 µM (human Nav1.1; [3]): 358%
Structure (SMILES): O=C(Cn1nc(C2=CCCCC2)ccc1=O)N1CCc2c(-c3cnccn3)cccc21 [Example 521]
- activation at 1 µM (human Nav1.5; [4]): 9%

- Nav1.1 current amplification rate (%) (human Nav1.1; [1]): 70%
Structure (SMILES): COc1cc(NC(=O)Cn2nc(N3CCC(C)CC3)ccc2=O)ccn1 [Example 74]
- Nav1.5 current amplification rate (%) (human Nav1.5; [2]): −2%

- activation at 10 µM (human Nav1.1; [5]): 118%
Structure (SMILES): COc1cc(N2CCC(C)(C)CC2)nn(CC(=O)N2CCc3c(N4CCOCC4)cccc32)c1=O [Example 224]
- activation at 10 µM (human Nav1.5; [6]): 11%

- activation at 1 µM (human Nav1.1; [3]): 135%
Structure (SMILES): C[C@H]1CC=C(c2ccc(=O)n(CC(=O)Nc3ccn4ncnc4c3)n2)CC1 [Example 538, 2-{3-[(4R)-4-methylcyclohex-1-en-1-yl]-6-oxopyridazin-1(6H)-yl}-N-([1,2,4]triazolo[1,5-a]pyridin-7-yl)acetamide]
- activation at 1 µM (human Nav1.5; [4]): 45%

- activation at 10 µM (human Nav1.1; [5]): 225%
Structure (SMILES): CN(C)c1cc(N2CCC3(CCCC3)C2)nn(CC(=O)Nc2ccc3ocnc3c2)c1=O [Example 196]
- activation at 10 µM (human Nav1.5; [6]): 18%

- Nav1.1 current amplification rate (%) (human Nav1.1; [1]): 219%
Structure (SMILES): COc1cc(C2=CCC(C(F)(F)F)CC2)nn(CC(=O)N2CCN(c3cncc(F)c3)CC2)c1=O (racemic) [Example 482]
- Nav1.5 current amplification rate (%) (human Nav1.5; [2]): 8%

- Nav1.1 current amplification rate (%) (human Nav1.1; [1]): 121%
Structure (SMILES): CC1CCN(c2ccc(=O)n(CC(=O)Nc3ccc4oc(=O)[nH]c4c3)n2)CC1 [Example 82]
- Nav1.5 current amplification rate (%) (human Nav1.5; [2]): 5%

- activation at 10 µM (human Nav1.1; [5]): 36%
Structure (SMILES): Cc1cc(NC(=O)Cn2nc(N3CCC4(CCCC4)C3)c(C)cc2=O)cc(C)n1 [Example 199]
- activation at 10 µM (human Nav1.5; [6]): 1%

- Nav1.1 current amplification rate (%) (human Nav1.1; [1]): 183%
Structure (SMILES): Cc1nc2cc(NC(=O)Cn3nc(N4CCC(C)CC4)ccc3=O)ccc2s1 [Example 88]
- Nav1.5 current amplification rate (%) (human Nav1.5; [2]): 31%

- Nav1.1 current amplification rate (%) (human Nav1.1; [1]): 270%
Structure (SMILES): COc1cncc(C2=CCN(C(=O)Cn3nc(C4=CCC(C)CC4)ccc3=O)CC2)c1 (centres unmarked) [Example 403]
- Nav1.5 current amplification rate (%) (human Nav1.5; [2]): 12%
